Tests used:
Type in all cases: cell-based, human
SNU-1 = assay: cell viability of diffuse-type GC cell line SNU-1 after inhibitor treatment; conditions: 2.5 μM, 5 μM and 10 μM, triplicate
Excerpt: (§1) The potential tumor antigens (pTAs) expression and signaling pathways were validated in vitro. To validate the association of pTAs with the EMT-like subtype of gastric cancer, the pTAs expression at intestinal-type and diffuse-type GC cell lines were investigated by western blotting. The human GC cell line AGS was obtained from American Type Culture Collection (ATCC) CRL-1739™, and Hs746T was obtained from ATCC HTB-135™, and SNU-1 was obtained from ATCC CRL5971™. Hs746T and SNU-1 were diffuse-type GC cell lines; AGS was an intestinal type GC cell line.
(§2) Therefore, two inhibitors (SB431542 and GDC-0449 (Vismodegib)) were used to validate whether the TGF-β and hedgehog signaling pathways were activated in diffuse-type GC cell lines, respectively. The experiments were performed in triplicate.

Hs746T = assay: cell viability of diffuse-type GC cell line Hs746T after inhibitor treatment; conditions: 2.5 μM, 5 μM and 10 μM, triplicate
Excerpt: as §1, §2

AGS = assay: cell viability of intestinal type GC cell line AGS after inhibitor treatment; conditions: for cell viability (inhibiting effect): 2.5 μM, 5 μM and 10 μM, triplicate
Excerpt: as §1, §2

| Structure (SMILES) | cell viability (SNU-1) | cell viability (Hs746T) | cell viability (inhibiting effect) (AGS) | effect on proliferation (AGS; concentrations of 2.5 μM and 5 μM) |
| --- | --- | --- | --- | --- |
| CS(=O)(=O)c1ccc(C(=O)Nc2ccc(Cl)c(-c3ccccn3)c2)c(Cl)c1 [GDC-0449, Vismodegib] | significantly decreased | significantly decreased | did not have significant effects of inhibiting | effects of promoting proliferation |
| NC(=O)c1ccc(-c2nc(-c3ccc4c(c3)OCO4)c(-c3ccccn3)[nH]2)cc1 [SB431542] | significantly decreased | significantly decreased | did not have significant effects of inhibiting |  |

— patent publication US12637717B2, “Method for treating and predicting prognosis of gastric cancer patient by calculating RNA expression with logistic regression” (National Yang Ming Chiao Tung University, priority 2022, dated 2026)
